Assay results from article PMC9297976 (Journal of Applied Toxicology, 2021).

Legend:
medaka ARβ (mArβ) [1] = target: T1, medaka ARβ (mArβ) (Oryzias latipes, UniProt D1MV73); assay: Medaka ARβ reporter gene assay, antagonist assay; assay type: cell-based, Japanese medaka (Oryzias latipes); settings: 11‐KT spiked at 50 nM (D); MAC = 1.0 × 10^−5 M
T1 sequence (D1MV73 1-744): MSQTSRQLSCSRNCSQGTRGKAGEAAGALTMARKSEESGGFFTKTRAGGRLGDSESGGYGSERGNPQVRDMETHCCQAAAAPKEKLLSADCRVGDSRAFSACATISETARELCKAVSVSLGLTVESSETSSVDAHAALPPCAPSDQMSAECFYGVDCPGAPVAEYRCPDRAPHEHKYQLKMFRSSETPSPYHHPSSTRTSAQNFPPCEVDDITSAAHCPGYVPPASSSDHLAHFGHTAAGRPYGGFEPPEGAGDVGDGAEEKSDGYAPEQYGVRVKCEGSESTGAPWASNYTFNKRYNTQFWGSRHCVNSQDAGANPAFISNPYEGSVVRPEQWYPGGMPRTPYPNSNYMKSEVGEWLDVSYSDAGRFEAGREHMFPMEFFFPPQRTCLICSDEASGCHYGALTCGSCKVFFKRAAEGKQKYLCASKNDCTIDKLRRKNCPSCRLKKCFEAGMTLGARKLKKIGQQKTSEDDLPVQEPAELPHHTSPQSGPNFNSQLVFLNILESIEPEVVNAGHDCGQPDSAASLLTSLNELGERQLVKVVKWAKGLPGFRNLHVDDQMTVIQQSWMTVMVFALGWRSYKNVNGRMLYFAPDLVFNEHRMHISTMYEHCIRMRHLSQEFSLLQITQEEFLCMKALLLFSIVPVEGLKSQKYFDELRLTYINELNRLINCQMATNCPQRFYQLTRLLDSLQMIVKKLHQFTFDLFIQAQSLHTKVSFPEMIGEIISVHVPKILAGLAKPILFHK

medaka Esr1 (mEsr1) [2] = target: T2, medaka Esr1 (mEsr1) (Oryzias latipes, UniProt P50241); assay: Medaka Esr1 reporter gene assay, antagonist assay; assay type: cell-based, Japanese medaka (Oryzias latipes); settings: E2 spiked at 0.2 nM (A); MAC = 1.0 × 10^−5 M
T2 sequence (P50241 1-620): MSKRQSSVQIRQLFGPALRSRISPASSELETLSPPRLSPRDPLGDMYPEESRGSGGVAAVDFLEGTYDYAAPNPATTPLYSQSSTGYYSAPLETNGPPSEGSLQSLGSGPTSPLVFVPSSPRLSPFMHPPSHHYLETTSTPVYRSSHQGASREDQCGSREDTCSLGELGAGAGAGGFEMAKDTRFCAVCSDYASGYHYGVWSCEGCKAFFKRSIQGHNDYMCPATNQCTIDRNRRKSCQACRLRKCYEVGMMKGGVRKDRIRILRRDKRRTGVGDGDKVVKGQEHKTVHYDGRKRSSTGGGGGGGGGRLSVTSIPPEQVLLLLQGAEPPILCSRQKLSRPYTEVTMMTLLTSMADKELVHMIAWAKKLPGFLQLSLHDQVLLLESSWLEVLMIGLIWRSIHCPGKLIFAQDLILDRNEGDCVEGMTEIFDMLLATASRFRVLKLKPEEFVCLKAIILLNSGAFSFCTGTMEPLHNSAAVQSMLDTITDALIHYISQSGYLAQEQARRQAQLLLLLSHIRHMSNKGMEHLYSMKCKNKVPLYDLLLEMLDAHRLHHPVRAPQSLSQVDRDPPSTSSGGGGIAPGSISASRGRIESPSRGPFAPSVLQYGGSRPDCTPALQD

medaka ARβ (mArβ) [3] = target: T1, medaka ARβ (mArβ); assay: Medaka ARβ reporter gene assay, agonist assay; assay type: cell-based, Japanese medaka (Oryzias latipes); settings: MAC = 1.0 × 10^−5 M
[4] = system: Japanese medaka (Oryzias latipes); assay: Fish Short‐Term Reproduction Assay; assay type: in vivo; settings: for Fertility rate / Hepatic VTG, female / Hepatic VTG, male / Mortality / Mortality, number of dead fish / Number of fertilized eggs (per female per day) / Number of total eggs (per female per day) / SSC female (joint plates with papillary processes) / SSC male (joint plates with papillary processes): 21 d; for GSI Female / GSI Male / HSI Female / HSI Male / Length Female / Length Male / Weight Female / Weight Male: completion of exposure
medaka Esr1 (mEsr1) [5] = target: T2, medaka Esr1 (mEsr1); assay: cell-based; set-up: species or system Japanese medaka (Oryzias latipes)
[6] = measured concentration 0.0619 μg/L
[7] = measured concentration 0.294 μg/L
[8] = measured concentration 1.30 μg/L

CC(C)C(C(=O)OC(C#N)c1cccc(Oc2ccccc2)c1)c1ccc(Cl)cc1 (centres unmarked) [FV, Fenvalerate]
Antagonistic activity (medaka ARβ (mArβ) [1]): NE (MAC = 1.0 × 10^−5 M)^(D) | Antagonistic activity (medaka Esr1 (mEsr1) [2]): NE (MAC = 1.0 × 10^−5 M) ^(A) | Agonistic activity (medaka ARβ (mArβ) [3]): NE (MAC = 1.0 × 10^−5 M) | Fertility rate ([4]; 0.0619 μg/L measured): 92 ± 3.2% | Hepatic VTG, female ([4]; 0.0619 μg/L measured): 390 ± 68 ng/mg‐liver | Hepatic VTG, male ([4]; 0.0619 μg/L measured): 0.5 ± 0.0 ng/mg‐liver | Mortality ([4]; 0.0619 μg/L measured): 0.0% | Mortality, number of dead fish ([4]; 0.0619 μg/L measured): 0 | Number of fertilized eggs (per female per day) ([4]; 0.0619 μg/L measured): 18 ± 2.7 | Number of total eggs (per female per day) ([4]; 0.0619 μg/L measured): 19 ± 3.6 | SSC female (joint plates with papillary processes) ([4]; 0.0619 μg/L measured): 0 ± 0 | SSC male (joint plates with papillary processes) ([4]; 0.0619 μg/L measured): 80 ± 5.6 | Fertility rate ([4]; 0.294 μg/L measured): 93 ± 4.3% | Hepatic VTG, female ([4]; 0.294 μg/L measured): 370 ± 212 ng/mg‐liver | Hepatic VTG, male ([4]; 0.294 μg/L measured): 0.5 ± 0.0 ng/mg‐liver | Mortality ([4]; 0.294 μg/L measured): 0.0% | Mortality, number of dead fish ([4]; 0.294 μg/L measured): 0 | Number of fertilized eggs (per female per day) ([4]; 0.294 μg/L measured): 20 ± 3.5 | Number of total eggs (per female per day) ([4]; 0.294 μg/L measured): 21 ± 3.1 | SSC female (joint plates with papillary processes) ([4]; 0.294 μg/L measured): 0 ± 0 | SSC male (joint plates with papillary processes) ([4]; 0.294 μg/L measured): 88 ± 7.2 | Fertility rate ([4]; 1.30 μg/L measured): 94 ± 2.8% | Hepatic VTG, female ([4]; 1.30 μg/L measured): 237 ± 152 ng/mg‐liver | Hepatic VTG, male ([4]; 1.30 μg/L measured): 0.9 ± 0.4 ng/mg‐liver | Mortality ([4]; 1.30 μg/L measured): 0.0% | Mortality, number of dead fish ([4]; 1.30 μg/L measured): 0 | Number of fertilized eggs (per female per day) ([4]; 1.30 μg/L measured): 23 ± 1.7 | Number of total eggs (per female per day) ([4]; 1.30 μg/L measured): 24 ± 1.8 | SSC female (joint plates with papillary processes) ([4]; 1.30 μg/L measured): 0 ± 0 | SSC male (joint plates with papillary processes) ([4]; 1.30 μg/L measured): 83 ± 4.8 | LOECREPRO ([4]; LOEC on reproduction (fecundity and/or fertility)): ND (>1.30) μg/L | minimal effective concentration ([4]; Oryzias latipes, 504 h, read-out: LOECmVTG): > 0.0013 µg/mL | LOECTOX ([4]; lowest observed effect concentration on mortality): ND (>1.3) μg/L | GSI Female [4, 6]: 9.9 ± 0.7% | GSI Male [4, 6]: 0.75 ± 0.07% | HSI Female [4, 6]: 4.3 ± 0.70% | HSI Male [4, 6]: 2.7 ± 0.30% | Length Female [4, 6]: 33.5 ± 1.1 mm | Length Male [4, 6]: 33.8 ± 1.4 mm | Weight Female [4, 6]: 454 ± 36 mg | Weight Male [4, 6]: 418 ± 51 mg | GSI Female [4, 7]: 9.7 ± 0.5% | GSI Male [4, 7]: 0.67 ± 0.11% | HSI Female [4, 7]: 4.7 ± 0.40% | HSI Male [4, 7]: 2.3 ± 0.50% | Length Female [4, 7]: 34.4 ± 0.9 mm | Length Male [4, 7]: 34.0 ± 0.2 mm | Weight Female [4, 7]: 484 ± 33 mg | Weight Male [4, 7]: 422 ± 22 mg | GSI Female [4, 8]: 10.0 ± 0.1% | GSI Male [4, 8]: 0.72 ± 0.10% | HSI Female [4, 8]: 4.4 ± 0.80% | HSI Male [4, 8]: 2.5 ± 0.20% | Length Female [4, 8]: 34.1 ± 0.5 mm | Length Male [4, 8]: 33.9 ± 1.9 mm | Weight Female [4, 8]: 491 ± 33 mg | Weight Male [4, 8]: 416 ± 56 mg | EC50 (medaka Esr1 (mEsr1) [5]): 2400 nM | In vitro positive: Esr (medaka Esr1 (mEsr1) [5]; mode of action in which EC50 or PC10 was obtained in RGA): Esr
